According to ChEMBL document CHEMBL1149299, “Hemolytic effects of water-soluble fullerene derivatives” (J Med Chem, 2004):

Assays:
[1] = Cytotoxicity against […] HepG2 cells by MTT assay; assay type: cell-based; details: read-out: LD50 (the source's name)
[2] = Cytotoxicity against pig LLC-PK1 cells by MTT assay; assay type: cell-based, Sus scrofa; details: read-out: LD50 (the source's name)
[3] = Cytotoxicity against human MCF7 by MTT assay; assay type: cell-based; details: MCF7 cells, read-out: LD50 (the source's name)
Erythrocyte [4] = assay: Hemolytic activity in human RBC at 30 uM; assay type: functional
Erythrocyte [5] = assay: Hemolytic activity in human RBC at 80 uM; assay type: functional

SMILES	CC50 [1] [µM]	CC50 [2] [µM]	CC50 [3] [µM]	Activity (Erythrocyte [4]) [%]	Activity (Erythrocyte [5]) [%]
C[N+]1(CCOCCOCCN)CCCC1	> 80	> 80	> 80		
CCCCCCCCCCCCCCCCCC(=O)NCCOCCOCCN.Cl	> 80	> 80	> 80	34	53
